Data: the METLIN SMRT retention time set (Domingo-Almenara et al. 2019)

Assay: gradient 5% acetonitrile 3 min, to 50% in 2 min, to 85% in 15 min, held 3 min, 100 µL/min
Conditions: column: Zorbax Extend-C18 2.1 x 50 mm; eluents: water / acetonitrile, 0.1% formic acid
Summary of the method: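 Values are retention times taken from adduct peaks that software picked and an analyst inspected. The pure standards were run as mixtures of ~100 molecules on HPLC linked to a quadrupole time-of-flight mass spectrometer, in positive and negative ionization mode. A Zorbax Extend-C18 column (2.1 × 50 mm, 1.8 μm) was used at 100 μL/min with water and acetonitrile, each including 0.1% formic acid.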

| Compound | RP-LC retention time [s] |
| --- | --- |
| O=C(CN1CCN(c2ccc(F)cc2)C1=O)NCCCN1CCCC1=O | 611 |
| CCOC(=O)c1c(C)[nH]c(C(=O)N2CCC(CC(=O)N3CCN(c4ccccc4)CC3)CC2)c1C | 836 |
| CCS(=O)(=O)N1[C@H]2CC[C@@H]1c1cnc(-c3ccc(F)cc3)nc1C2 | 945 |
| O=C(NCc1ccc(F)cc1F)c1c(O)c2cccnc2n(-c2ccccc2)c1=O | 1200 |
| CN1CCCc2cc(C(=O)NCc3ccc(F)cc3)sc21 | 906 |
| COC(=O)C1=C(CN2CCOCC2)NC(=O)NC1c1ccc(Cl)cc1 (configuration not stated) | 566 |
| CCc1cccc(NC(=O)N2CCC(c3cc(N)on3)CC2)c1 | 751 |
| O=C(Cc1cccc(Cl)c1)Nc1cc(-c2ccccn2)no1 | 843 |
| O=C(NCc1ccc(Cl)cc1)C1CCCN(c2ncnc3c2nc2n3CCCCC2)C1 (configuration not stated) | 812 |
| CC(C)(C)c1noc(-c2ccc(-n3cnc(C(=O)N4CCSCC4)c3)nc2)n1 | 963 |
| O=S(=O)(Cc1ccccc1)N1CCC(OCCOCc2ccccc2)CC1 | 1040 |
| CCN(c1cccc(C)c1)S(=O)(=O)c1cc2n(c1)CCCNC2=O | 720 |
| Cc1ccccc1-c1nc2cnccn2c1NCCC(=O)NCc1ccccc1 | 669 |
| Cc1noc(C)c1S(=O)(=O)N1CCC2(CCC(CN(C)Cc3ccncc3)O2)CC1 (configuration not stated) | 604 |
| CC(=O)O[C@H]1Cc2ccccc2N(C(N)=O)c2ccccc21 | 782 |
| CCn1cnc(S(=O)(=O)N2CCC(C(=O)Nc3nc4ccc(C)cc4s3)CC2)c1 | 812 |
| Cc1cccc(NC(=O)CSc2cc(N3CCN(c4ccccc4F)CC3)ncn2)c1 | 1110 |
| COc1ccc(C2CCCCCN2S(C)(=O)=O)cc1 (configuration not stated) | 932 |
| CCCNC(=O)C1CCCN(c2nc3ncn(CC(=O)Nc4ccc(Cl)cc4)c(=O)c3s2)C1 (configuration not stated) | 741 |
| Cc1oc(-c2ccc(NC(=O)Cc3ccccc3Cl)cc2)nc1Cn1cccn1 | 899 |
| CN(C)C(=O)c1ccc2c(c1)N(CC(=O)Nc1cccnc1)C(=O)CO2 | 572 |
| CCOc1ccc(N2CC(c3nc(-c4ccc(C)cc4)no3)CC2=O)cc1 (configuration not stated) | 1090 |
| O=C1CCN(CC2CCCCC2)CCCC(c2nc(-c3cnccn3)no2)CCN1 (configuration not stated) | 619 |

| Compound | RP-LC retention time [s] |
| --- | --- |
| Cc1nnc(-c2nnc(NCc3cccc(F)c3)c3ccccc23)o1 | 826 |
| c1ccc(-c2nc3ncc4c(n3n2)CCCCC4)cc1 | 892 |
| Cc1ccccc1Cc1nc(-c2ccnc(N3CCOCC3)c2)no1 | 908 |
| COc1cc(OC)c(NC(=O)N(C)Cc2nc3cc(C(=O)N(C)C)ccc3n2C)cc1Cl | 619 |
| O=C(C1CCCCC1)N1CCN(c2cc(-c3ccc(Cl)cc3)[nH]n2)CC1 | 910 |
| CCc1ccc(OC(C)C(=O)N(Cc2ccc(C)o2)C2CCS(=O)(=O)C2)cc1 (configuration not stated) | 984 |
| O=S(=O)(CCOc1ccccc1)NCc1ccc2c(c1)OCO2 | 806 |
| Cc1cc(N2CCCCC2)nc(N2CCN(C(=O)C3CCCCC3)CC2)n1 | 728 |
| CN(Cc1ccccc1)C(=O)CN1C(=O)C2CCCCN2c2ccc(S(=O)(=O)N3CCCC3)cc21 (configuration not stated) | 987 |
| Cc1cc(F)ccc1NS(=O)(=O)c1c(C)sc(C)c1-c1cc(C(F)(F)F)on1 | 1200 |
| Cc1ccc(NC(=O)N2CCC(n3c(-c4ccoc4)nc4cccnc43)C2)cc1F (configuration not stated) | 774 |
| O=C1NCCCn2cc(S(=O)(=O)Nc3ccc(F)cc3Cl)cc21 | 650 |
| CC(C)CN1CCn2cc(S(=O)(=O)NCc3cc(F)cc(F)c3)cc2C1=O | 808 |
| OCCNCc1ccc(-c2ccc(Cl)cc2Cl)o1 | 642 |
| Cc1sc2ncnc(N3CCCC(C)C3)c2c1C(=O)Nc1cc(F)c(F)cc1F (configuration not stated) | 858 |
| Cc1cccc(N2C=C(C(=O)N3CCOCC3)S(=O)(=O)c3ccc(Cl)cc32)c1 | 868 |
| O=C(Cn1ccc2ccc(N3CCOCC3)nc21)NCc1ccccc1Br | 886 |
| COc1cc(NC(=O)CSc2nccc(N3CCN(c4cccc(OC)c4)CC3)n2)cc(OC)c1 | 667 |
| CN1CCN(CCc2ccc(Cl)c(Cl)c2)CC1 | 668 |
| COc1ccccc1CNC(=O)C1c2ccccc2C(=O)N2CCc3cc(OC)c(OC)cc3C12 (configuration not stated) | 735 |
| Cc1cccc(NC(=O)c2cn(CC(=O)NC3CCCC3)c3nc(C)ccc3c2=O)c1 | 996 |
| NS(=O)(=O)c1ccc(CCNCc2ccc(-c3ccc(F)cc3)o2)cc1 | 643 |
| Cc1cc(C)cc(Nc2nc(C)cc3nn(CC(=O)N4CCOCC4)c(=O)n23)c1 | 601 |

| Compound | RP-LC retention time [s] |
| --- | --- |
| FC(F)(F)c1cccc(N2CCN(c3ncnc4sccc34)CC2)c1 | 987 |
| Cc1cc(C)cc(C(=O)N2CCCC(C(=O)NCCN(C)C)C2)c1 (configuration not stated) | 599 |
| CNC(=O)[C@@H]1CN(S(=O)(=O)c2cnc[nH]2)C[C@H]1c1nc(C)no1 | 568 |
| O=C1CCc2cc(NS(=O)(=O)Cc3cccc(Cl)c3)ccc2N1 | 938 |
| O=c1[nH]cc(S(=O)(=O)N2CCCC2)c(=O)[nH]1 | 568 |
| Cc1cc(C)n(Cc2ccc(C(=O)N3CCC(c4noc(-c5cccnc5)n4)C3)o2)n1 (configuration not stated) | 696 |
| CCN1C(=O)c2cc(C(=O)NCc3ccc(C)cc3)nn2CC1(C)C(=O)NC1CCCC1 (configuration not stated) | 766 |
| CCCn1cc(C(=O)NCc2ccccc2C)c(S(=O)(=O)N2CCC(C)CC2)n1 | 1110 |
| O=C(Nc1ccc(F)c(Cl)c1)Nc1c(-c2ccncc2)nc2ccccn12 | 628 |
| O=C(NCc1csc(-c2cccs2)n1)C1CCN(C(=O)COc2ccccc2)CC1 | 770 |
| Cc1ccc(NC(=O)Cn2nc(N3CCCCCC3)c3ccccc3c2=O)cc1F | 1170 |
| NC(=O)COC1CCC12CCN(C(=O)C1CCCC1)CC2 (configuration not stated) | 693 |
| CCOc1ccc(CCNC(=O)c2cc(S(=O)(=O)N3CCCCC3)c(C)n2C)cc1OCC | 1010 |
| Nc1nc(SCC(=O)c2ccc3c(c2)OCCO3)n[nH]1 | 574 |
| c1ccc(OCCC2CCN(Cc3ccc4[nH]ccc4c3)C2)cc1 (configuration not stated) | 726 |
| Cc1ccc(-n2c(N3CCCC(C(=O)Nc4ccc(C)c(Cl)c4)C3)nc3ccsc3c2=O)cc1 (configuration not stated) | 1160 |
| COCCCn1cnc2c(-c3ccccc3)cn(CC(=O)NCc3ccco3)c2c1=O | 802 |
| O=C(NCc1cccnc1)c1c2c(nc3ccccc13)C(=O)N(C1CCCCC1)C2 | 612 |
| Cc1ccccc1Nc1c(-c2ccccc2)nc2cnccn12 | 906 |
| O=C(c1ccsc1)N1CCn2c(nnc2-c2ccccc2)C1 | 611 |
| CCCc1c(C(=O)O)nnn1-c1cc(C)ccc1F | 787 |
